Experimental data: US11261201B2 (priority 2018, dated 2022)
Converted amounts (≈) assume the structure as drawn. Counter-ions that a name gives are not always drawn. Like-named read-outs stand apart in the source and are kept apart here.

Tests used:
[1] = test system: E. coli; experiment: Gram negative MIC protocol (OD600, LB, 24 h); conditions: Escherichia coli
Description: (§1) Overnight bacterial cultures were grown in LB with no added antibiotics at 37° C. with shaking. A 1:1000 dilution of these cultures into LB was exposed to concentration gradients of compounds in 96-well plates (100 μL per well assay volume). Resulting plates were incubated at 37° C. for 24 h without shaking, and OD600 was measured at the end of the incubation. MICs were determined as the lowest concentrations at which OD600 remained at baseline.

[2] = test system: A. baumannii; experiment: Gram negative MIC protocol (OD600, LB, 24 h); conditions: Acinetobacter baumannii
Description: as §1

[3] = test system: H37RvMA; experiment: Tuberculosis Alamar Blue/Resazurin assay (MIC); format: cell-based; conditions: Mycobacterium tuberculosis, H37RV, read-out: WT H37Rv MTB Activity
[4] = read-out: MIC E. coli delta-TolC LB Media, E. coli delta-TolC strain, LB media, 24 h, OD600
[5] = read-out: MIC WT E. coli LB Media, wild-type E. coli, LB media, 24 h, OD600
[6] = read-out: MIC A. baumannii LB Media, A. baumannii, LB media, 24 h, OD600
[7] = read-out: MIC E. coli delta-TolC LB Media, E. coli delta-TolC, LB media, OD600
[8] = read-out: MIC WT E. coli LB Media, WT E. coli, LB media, OD600
[9] = read-out: MIC A. baumannii LB Media

Structure (SMILES) | MIC [1, 4] [µM] | MIC [1, 5] [µM] | MIC [2, 6] [µM] | MIC ([3]; WT H37Rv MTB) [µM] | MIC [1, 7] [µM] | MIC [1, 8] [µM] | MIC [3] [µM] | MIC [2, 9] [µM]
COCC(CC1CCCCC1)NCc1ccccc1 (stereo not shown) [B202, N-benzyl-1-cyclohexyl-3-methoxypropan-2-amine hydrochloride] | > 300 | > 300 | > 300 | > 150 | – | – | – | –
CCCNC(=O)COc1ccccc1CNC(C)CC1CCCCC1 (stereo not shown) [B242] | 12 (≈ 4.16 µg/mL) | > 150 | > 150 | > 150 | – | – | – | –
COCC(C)NC(=O)NC(=O)COc1ccccc1CNC(C)CC1CCCCC1 (stereo not shown) [B308] | 4 (≈ 1.68 µg/mL) | > 150 | 150 (≈ 62.9 µg/mL) | > 150 | – | – | – | –
O=C1Cc2ccccc2CN1C1CCCCC1 [B418, 2-cyclohexyl-1,4-dihydroisoquinolin-3(2H)-one] | – | – | > 150 | > 150 | > 150 | > 150 | – | –
C[C@H](NCc1ccccc1)C12CC3CC(CC(C3)C1)C2 [B197] | – | – | 300 (≈ 80.8 µg/mL) | > 150 | 96 (≈ 25.9 µg/mL) | 170 (≈ 45.8 µg/mL) | – | –
COc1cc(CC(C)NCc2ccccc2)ccn1 (stereo not shown) [B85] | – | – | > 150 | – | > 150 | > 150 | > 150 | –
c1ccc(-c2cccc3ccccc23)c(CNCCC2CCCCC2)c1 [B238, 2-cyclohexyl-N-(2-(naphthalen-1-yl)benzyl)ethanamine hydrochloride] | 10 | > 300 | 54 | 55 | – | – | – | –
CC(CC1CCCCC1)NCc1ccccc1Oc1ccccc1F (stereo not shown) [B405, 1-cyclohexyl-N-(2-(2-fluorophenoxy)benzyl)propan-2-amine] | – | – | 150 (≈ 51.2 µg/mL) | 33.4 (≈ 11.4 µg/mL) | 5 (≈ 1.71 µg/mL) | 91 (≈ 31.1 µg/mL) | – | –
CNCc1cccc(CNCCC2CCCCC2)c1 [B420, 2-cyclohexyl-N-(3-((methylamino)methyl)benzyl)ethan-1-amine] | – | – | > 150 | > 150 | > 150 | > 150 | – | –
NCc1cccc(CNCCC2CCCCC2)c1 [B355] | > 150 | > 150 | > 150 | > 150 | – | – | – | –
CC(CC1CCOC1)NCc1ccccc1 (stereo not shown) [B31] | – | – | > 150 | > 150 | > 150 | > 150 | – | –
CC(C)c1ccccc1CNCCC1CCCCC1 [B227, 2-cyclohexyl-N-(2-isopropylbenzyl)ethanamine hydrochloride] | 12 | 170 | 170 | 150 | – | – | – | –
OC1(CCNCc2ccccc2)CCCCC1Cl (stereo not shown) [B188] | – | – | > 300 | > 150 | > 300 | > 300 | – | –
c1ccc(CNCCC2CCCNC2)cc1 (stereo not shown) [B224] | > 150 | > 300 | > 300 | > 150 | – | – | – | –
COC(=O)c1cc(COc2ccccc2CNC(C)CC2CCCCC2)oc1C (stereo not shown) [B272] | 12 (≈ 4.79 µg/mL) | > 150 | > 150 | 150 (≈ 59.9 µg/mL) | – | – | – | –
OB(O)c1ccccc1CNCCC1CCCCC1 [B340, 2-((2-cyclohexylethylamino)methyl)phenylboronic acid] | 55 (≈ 14.4 µg/mL) | > 150 | > 150 | > 150 | – | – | – | –
CC(CC1CCCCC1)NCc1ccccc1CS(=O)(=O)NCC1CCCO1 (stereo not shown) [B433, 1-(2-(((1-cyclohexylpropan-2-yl)amino)methyl)phenyl)-N-((tetrahydrofuran-2-yl)methyl)methanesulfonamide] | – | – | 150 (≈ 61.3 µg/mL) | > 150 | 3 (≈ 1.23 µg/mL) | 150 (≈ 61.3 µg/mL) | – | –
O=C1Cc2ccccc2CN1CCC1CCCC1 [B427, 2-(2-cyclopentylethyl)-1,4-dihydroisoquinolin-3(2H)-one] | – | – | > 150 | 2.7 (≈ 0.657 µg/mL) | > 150 | > 150 | – | –
COC(=O)Cn1ccc2cccc(CNC(C)CC3CCCCC3)c21 (stereo not shown) [B435, methyl 2-(7-(((1-cyclohexylpropan-2-yl)amino)methyl)-1H-indol-1-yl)acetate hydrochloride] | – | – | > 150 | > 150 | 150 | > 150 | – | –
Clc1cc(CCNCc2ccccc2)cc2c1OCCO2 [B55] | – | – | – | – | > 150 | > 150 | 150 (≈ 45.6 µg/mL) | > 150
CC(C)(CN1CCOCC1)NCc1ccccc1 [B67] | – | – | > 150 | > 150 | > 150 | > 150 | – | –
COc1ccc(CCNCc2ccccc2)c2ccccc12 [B111] | – | – | 150 (≈ 43.7 µg/mL) | 33 (≈ 9.62 µg/mL) | 150 (≈ 43.7 µg/mL) | > 150 | – | –
COc1ccc(C(C)C(C)NCc2ccccc2)cc1OC (stereo not shown) [B54] | – | – | > 150 | – | > 150 | > 150 | > 150 | –
Cc1ccccc1COc1ccccc1CNC(C)CC1CCCCC1 (stereo not shown) [B384] | 4 (≈ 1.41 µg/mL) | 91 (≈ 32 µg/mL) | 55 (≈ 19.3 µg/mL) | 20.2 (≈ 7.1 µg/mL) | – | – | – | –
CC(CC1CCCCC1)NCc1ccccc1OCc1ccccc1Br (stereo not shown) [B381] | 4 (≈ 1.67 µg/mL) | 55 (≈ 22.9 µg/mL) | 55 (≈ 22.9 µg/mL) | 20.2 (≈ 8.41 µg/mL) | – | – | – | –
C[Si](C)(C)c1ccccc1CNCCC1CCCCC1 [B341, 2-cyclohexyl-N-(2-(trimethylsilyl)-benzyl)ethanamine hydrochloride] | 7 | > 150 | – | – | – | – | 150 | > 150

Structure (SMILES) | MIC [1, 4] [µM] | MIC [1, 5] [µM] | MIC [2, 6] [µM] | MIC ([3]; WT H37Rv MTB) [µM] | MIC [1, 7] [µM] | MIC [1, 8] [µM] | MIC [3] [µM] | MIC [2, 9] [µM]
Fc1ccc(CNCCC2=CCCCC2)cc1F [B144] | – | – | > 150 | > 150 | > 150 | > 150 | – | –
C1=CC(CCNCc2ccccc2)CCC1 (stereo not shown) [B160] | – | – | – | – | > 150 | > 150 | > 150 | > 150
OC(CNCc1ccccc1)c1ccc2ccccc2c1 (stereo not shown) [B138] | – | – | > 150 | > 150 | > 150 | > 150 | – | –
c1ccc(CNC2Cc3ccccc3C2)cc1 [B206, N-benzyl-2,3-dihydro-1H-inden-2-amine hydrochloride] | > 300 | > 300 | > 300 | > 150 | – | – | – | –
CC(CC1CCCCC1)NCc1ccccc1OCCOCC(F)(F)F (stereo not shown) [B305] | 3 (≈ 1.12 µg/mL) | > 150 | 91 (≈ 34 µg/mL) | 150 (≈ 56 µg/mL) | – | – | – | –
CCC1CCCCC1Oc1ccccc1CNC(C)CC1CCCCC1 (stereo not shown) [B392, 1-cyclohexyl-N-(2-((2-ethylcyclohexyl)oxy)benzyl)propan-2-amine] | 7 (≈ 2.5 µg/mL) | > 150 | 150 (≈ 53.6 µg/mL) | 33.4 (≈ 11.9 µg/mL) | – | – | – | –
OCc1ccccc1CNCCC1CCCCC1 [B255] | 84 (≈ 20.8 µg/mL) | > 150 | > 150 | > 150 | – | – | – | –
C[C@H](NCc1ccccc1)[C@@H]1C[C@H]1c1ccccc1 [B86] | – | – | > 150 | > 150 | > 150 | > 150 | – | –
CCNC(=O)COc1ccccc1CNC(C)CC1CCCCC1 (stereo not shown) [B239] | 20 (≈ 6.65 µg/mL) | > 150 | > 150 | > 150 | – | – | – | –
COC(=O)COc1ccccc1CNC(C)CC1CCCCC1 (stereo not shown) [B362] | 7 (≈ 2.24 µg/mL) | 150 (≈ 47.9 µg/mL) | 150 (≈ 47.9 µg/mL) | > 150 | – | – | – | –
COc1cccc(OCCOc2ccccc2CNC(C)CC2CCCCC2)c1 (stereo not shown) [B266] | 2 (≈ 0.795 µg/mL) | 150 (≈ 59.6 µg/mL) | 33 (≈ 13.1 µg/mL) | 55 (≈ 21.9 µg/mL) | – | – | – | –
CC(CC1CCCCC1)NCc1ccccc1OC1CCCC1 (stereo not shown) [B288] | 3 (≈ 0.947 µg/mL) | > 150 | 150 (≈ 47.3 µg/mL) | 91 (≈ 28.7 µg/mL) | – | – | – | –
O=C1CCC(CCNCc2ccccc2)CC1 [B218, 4-(2-(benzylamino)ethyl) cyclohexanone] | > 300 | > 300 | > 300 | > 150 | – | – | – | –
CC(CC1CCCCC1)NCc1ccccc1CCC(N)=O (stereo not shown) [B399, 3-(2-((1-cyclohexylpropan-2-ylamino)methyl)phenyl)propanamide trifluoroacetate] | – | – | – | – | 20 | 150 | > 150 | > 150
c1ccc(CNC2CC23CCCCC3)cc1 (stereo not shown) [B125] | – | – | > 150 | > 150 | > 150 | > 150 | – | –
CC(CNCc1ccccc1)C1CCCCC1 (stereo not shown) [B103] | – | – | > 150 | > 150 | 150 (≈ 34.7 µg/mL) | 150 (≈ 34.7 µg/mL) | – | –
COC(=O)c1cccc(CNCCC2CCCCC2)c1 [B349] | > 150 | > 150 | > 150 | > 150 | – | – | – | –
CC(C)(Cc1ccc(C(F)(F)F)cc1)NCc1ccccc1 [B93] | – | – | – | – | > 150 | > 150 | > 150 | > 150
CC(CC1CCCCC1)NCc1ccccc1OCCC(C)(C)O (stereo not shown) [B275] | 4 (≈ 1.33 µg/mL) | 150 (≈ 50 µg/mL) | 91 (≈ 30.3 µg/mL) | > 150 | – | – | – | –
C[C@H](NCc1ccccc1)[C@H](O)c1ccc2c(c1)OCO2 [B53] | – | – | > 150 | – | > 150 | > 150 | > 150 | –
c1ccc(CNCCc2ccc3ccccc3c2)cc1 [B133] | – | – | > 150 | 55 (≈ 14.4 µg/mL) | > 150 | > 150 | – | –
CC(CC1CCCCC1)NCc1ccccc1OCCCS(C)(=O)=O (stereo not shown) [B299] | 4 (≈ 1.47 µg/mL) | 150 (≈ 55.1 µg/mL) | 150 (≈ 55.1 µg/mL) | > 150 | – | – | – | –
CC(C)=CCCNCc1ccccc1 [B51] | – | – | > 150 | > 150 | > 150 | > 150 | – | –
CC(CC1CCCCC1)NCc1ccccc1OCC1CN(C2CC2)C(=O)O1 (stereo not shown) [B367] | 5 (≈ 1.93 µg/mL) | 150 (≈ 58 µg/mL) | 150 (≈ 58 µg/mL) | > 150 | – | – | – | –
CN1CC(COc2ccccc2CNCCC2=CCCCC2)OC1=O (stereo not shown) [B371] | 33 (≈ 11.4 µg/mL) | > 150 | > 150 | > 150 | – | – | – | –
CC(CC1CCCCC1)NCc1ccccc1OCCN1CCOCC1 (stereo not shown) [B250] | 12 (≈ 4.33 µg/mL) | > 150 | > 150 | > 150 | – | – | – | –
